Data reported in patent US8138148B2, “GDNF derived peptides” (Copenhagen University, priority 2005, dated 2012).

How the values were obtained:
hippocampal neurons [1] = experiment: Neurite outgrowth in co-cultures with pharmacological inhibitors (PP2, SU5402); type: cell-based, rat; conditions: neurons on control or NCAM-expressing fibroblasts; for effect of inhibitor on GDNF-induced neurite outgrowth: 10 ng/ml GDNF, PP2 0.2-25 μM, SU5402 1-25 μM; for effect of inhibitor on G2-induced neurite outgrowth: 3 μg/ml G2, PP2 0.2-100 μM, SU5402 1-100 μM, 24 hours
Procedure: (§1) In monocultures, neurons are grown directly on plastic and the only neuritogenic stimulus is the one presented by the added substance. In co-cultures, neurons are grown on top of a confluent monolayer of fibroblasts expressing NCAM-140 (LBN110) or NCAM-negative control fibroblasts (LVN212). NCAM on the neurons interact with NCAM on LBN110 cells thereby stimulating neurite outgrowth from the neurons. This system thus permits the study of NCAM-NCAM interactions and interactions between NCAM and other molecules.
(§2) For cocultures, L-cells were seeded in 8-well LabTek® Permanox Chamber slides at a density of 100.000 cells/well, except for transfection experiments where cells were seeded in 4-well LabTek® Permanox Chamber slides at a density of 200.000 cells/well. L-cells were grown for 24 hours in DMEM supplemented with 10% (v/v) FCS, 1% (v/v) glutamax, 100 U/ml penicillin, 100 μg/ml streptomycin, 2.5 μg/ml fungizone, and 567 μg/ml neomycin (G418), followed by washing twice in neurobasal medium with supplements before primary hippocampal neurons were seeded at a density of 7.000 cells/well in 8-well slides or 20.000 cells/well in 4-well slides.
To evaluate the involvement different intracellular signal transduction pathways pharmacological inhibitors, in particular the FGFR inhibitor SU5402 and Fyn-kinase inhibitor PP2, were diluted to the appropriate concentrations and added to the neurons immediately after seeding. After 10 minutes GDNF, GDNFp1 or medium (controls) was added and cells were incubated for 24 hours.
(§3) Neurite outgrowth experiments were terminated after the stated time by fixating the cells. To visualize neurons and their neurites, immunostaining of GAP-43 was performed. This staining is specific for neurons. Transfected cells and their neurites should be visible without immunostaining due to the fluorescence emitted by GFP. […] GFP is a cytoplasmic protein, and since thin neurites only contain a small volume of cytoplasm, GFP is only found in small amounts in most neurites. Therefore, a double-staining protocol, where cells were immunostained against GFP and GAP-43, was adopted. This protocol allowed the identification of transfected cells on the basis of GFP-staining in combination with visualization of neurites based on GAP-43-staining.
Without prior removal of the medium 300 μl/well (8-well slides) or 500 μl/well (4-well slides) of a PBS solution containing 0.4 mM CaCl2, 0.05 M sucrose and 8% (v/v) formaldehyde was added to the cultures for 20 minutes. Cells were then washed 10 minutes in PBS followed by washing in PBS with 1% (w/v) BSA for 20 minutes, after which cells were incubated with primary antibodies overnight at 4° C. […]

GFRα receptors = experiment: Surface plasmon resonance (SPR) binding analysis, GFRα receptors; conditions: immobilized receptor protein, 25° C., PBS pH 7.4
Procedure: Analysis of binding was performed employing a BIAcoreX instrument (Biosensor AB, Uppsala, Sweden) at 25° C. using 10 mM pH 7.4 sodium phosphate containing 150 mM NaCl as running buffer (phosphate-buffered saline, PBS). The flow-rate was 5 μl/min. Data were analysed by non-linear curve-fitting using the manufacturer's software. The receptor proteins, e.g. NCAM Ig1-Ig2 and GFR proteins, were immobilized on a sensor chip CM5 using an amine coupling kit (Biosensor AB) as follows: the chip was activated by 20 μl activation solution; the protein was immobilized using 12 μl 20 μg/ml protein in 10 mM sodium phosphate buffer pH 6.0; the chip was blocked by 35 μl blocking solution. Various peptides at the indicated concentrations were injected into the sensor chip. The curve corresponding to the difference between binding to receptor and a blank chip was used for analysis.

[2] = test system: cerebellar granule neurons (CGN); experiment: Survival assay, cerebellar granule neurons (apoptosis induced by low KCl); type: cell-based, Wistar rat; conditions: 5 mM KCl, two days after induction of apoptosis
Procedure: Cerebellar granule neurons (CGN) were prepared from postnatal day seven Wistar rats largely as previously described by Schousboe et al. (1989). Cerebellar tissue was dissected in modified Krebs-Ringer solution kept on ice, and treated as described for the hippocampal neurons above. All cell cultures were incubated at 37° C. in a humidified atmosphere containing 5% CO2. All animals were handled in accordance with the national guidelines for animal welfare.
Primary cultures of CGN were plated at a density of 100,000 cells/cm^2 on poly-L-lysine coated 8-well permanox slides in Neurobasal-A medium (Gibco, BRL) supplemented with 2% (v/v) B27, 0.5% (v/v) glutamax, 100 U/ml penicillin, 100 μg/ml streptomycin and KCl, making the final concentration of KCl in the medium 40 mM. 24 hours after plating, cytosine-β-D-arabinofuranoside (Ara-C; Sigma-Aldrich) was added to a final concentration of 10 μM to avoid proliferation of glial cells, after which the neurons were allowed to differentiate for further six days at 37° C. Apoptotic cell death was induced by washing twice and changing the medium to Basal Medium Eagle (BME; Gibco BRL) supplemented with 1% (v/v) glutamine, 100 U/ml penicillin and 100 μg/ml streptomycin, 3.5 g D-glucose/l and 1% (v/v) sodium pyruvate (Gibco BRL) together with various concentrations of peptide. Thereby the concentration of potassium in the cultures was reduced to 5 mM KCl (D'Mello et al., 1993). Two days after induction of apoptosis, the cells were fixed with 4% (v/v) formaldehyde and stained with Hoechst 33258 for 25 minutes as described by Kruman et al. (1997). Images of 1000-1500 neurons were randomly recorded for each group in each experiment using computer assisted fluorescence microscopy as described for the hippocampal neurite outgrowth assay. Nuclei from dead and live neurons were counted using the software package Prima developed at the Protein Laboratory, and the fraction of live neurons relative to the total number of neurons was estimated.

[3] = test system: primary hippocampal neurons; experiment: Neurite outgrowth assay, monocultures of primary hippocampal neurons; type: cell-based, rat; conditions: monoculture, stimulated 24 hours; GDNF 1-100 ng/ml, peptides 0.1-27 μg/ml; versus medium alone
Procedure: (§4) Two different versions of the neurite outgrowth assay were used in this study, monocultures and co-cultures.
as §1
(§5) For all experiments cells were grown in neurobasal medium with supplements as described above in a final volume of 300 μl/well in 8-well LabTek® Permanox Chamber slides or 500 μl/well in 4-well LabTek® Permanox Chamber slides.
For monocultures, primary hippocampal neurons were seeded in 8-well LabTek® Permanox Chamber slides at a density of 10,000 cells/well.
(§6) To evaluate the effect peptides on neurite outgrowth, GDNF and the peptides, G1, G2, G3, A1, A2, A3, N1, N2 and N3 were diluted to the appropriate concentrations and added to the neurons approximately 10 minutes after seeding. Medium alone was added to controls, and cells were incubated for 24 hours.
as §3, with “GAP-43-staining. […]” for “GAP-43-staining.”

hippocampal neurons [4] = experiment: Neurite outgrowth assay, co-cultures of hippocampal neurons on control fibroblasts or NCAM-expressing fibroblasts; type: cell-based, rat; conditions: 24 hours
Procedure: as §4, §1, §5, §2, §6, §3
Without prior removal of the medium 300 μl/well (8-well slides) or 500 μl/well (4-well slides) of a PBS solution containing 0.4 mM CaCl2, 0.05 M sucrose and 8% (v/v) formaldehyde was added to the cultures for 20 minutes. Cells were then washed 10 minutes in PBS followed by washing in PBS with 1% (w/v) BSA for 20 minutes, after which cells were incubated with primary antibodies overnight at 4° C.
Rabbit anti-rat GAP-43 antibodies were diluted 1:1000 for staining of untransfected cells and 1:2000 for staining of transfected cells. Mouse anti-GFP antibodies were diluted 1:1000. Antibodies were diluted in a PBS solution containing 7% (v/v) FCS to block unspecific binding, 50 mM glycine to block formaldehyde used for fixation, 0.2% (v/v) saponin to permeabilize cells, and 0.02% (v/v) NaN3 to preserve antibodies for later use.
The next day cells were washed 10 minutes in PBS followed by washing in PBS with 1% (w/v) BSA for 20 minutes. Cells were then incubated with secondary antibodies diluted in PBS with 1% (w/v) BSA for one hour at room temperature. Goat anti-rabbit IgG antibodies conjugated to Alexa 488 were diluted 1:1000 for untransfected cells and 1:2000 for transfected cells. Goat anti-mouse IgG antibodies conjugated to Alexa 546 were diluted 1:1000. Finally cells were washed 3×7 minutes in PBS and mounted with fluorescent mounting medium. […]

| Molecule | binding to the GFRα receptors (SPR) (GFRα receptors) | survival of cerebellar granule neurons (CGN) [2] | other results |
| --- | --- | --- | --- |
| Cc1c[nH]c(/C=C2\C(=O)Nc3ccccc32)c1CCC(=O)O [SU5402] | – | – | effect of inhibitor on GDNF-induced neurite outgrowth (hippocampal neurons [1]): decreases GDNF-induced neurite outgrowth; effect of inhibitor on G2-induced neurite outgrowth (hippocampal neurons [1]): decreases G2-induced neurite outgrowth |
| ARVYDLGLRRLRQRR (listed as Homo sapiens) [N2, neurturin fragment] | binding | – | – |
| DEVSFLDAHSRY (listed as Homo sapiens) [NeuGi, neurturin-derived peptide] | binding | increases the survival of CGNs | – |
| DLSFLDDNLVY (listed as Homo sapiens) [G3, GDNF fragment] | – | – | neurite outgrowth, overall effect of treatment (one-way ANOVA) [3]: do not induce neurite outgrowth; neurite outgrowth, overall effect of treatment, neurons grown on NCAM-expressing fibroblasts (hippocampal neurons [4]; co-culture on NCAM-expressing fibroblasts, GDNF 1-100 ng/ml, peptides 0.1-81 μg/ml): overall statistical significant effect; neurite outgrowth, overall effect of treatment, neurons grown on control fibroblasts (hippocampal neurons [4]; co-culture on control fibroblasts, GDNF 1-100 ng/ml, peptides 0.1-81 μg/ml): no overall significant effect; difference between neurite outgrowth on control fibroblasts and on NCAM-expressing fibroblasts across concentrations (one-way ANOVA) (hippocampal neurons [4]; difference per concentration, expressed as percentage of control): mean differences are not all the same; direction of the effect on NCAM-induced neurite outgrowth (hippocampal neurons [4]; neurons on NCAM-expressing fibroblasts, 0.3-81 μg/ml): inhibitory at higher concentrations |
| VRVSELGLGYASDET (listed as Homo sapiens) [N1, neurturin fragment] | binding | increases the survival of CGNs | – |
| VPVRALGLGHRSDEL (listed as Homo sapiens) [A1, artemin fragment] | – | increases the survival of CGNs | – |
| CC(C)(C)n1nc(-c2ccc(Cl)cc2)c2c(N)ncnc21 [PP2] | – | – | effect of inhibitor on GDNF-induced neurite outgrowth (hippocampal neurons [1]): decreases GDNF-induced neurite outgrowth; effect of inhibitor on G2-induced neurite outgrowth (hippocampal neurons [1]): decreases G2-induced neurite outgrowth |
| EAVSFMDVNSTWR (listed as Homo sapiens) [ArtGi, artemin-derived peptide] | binding | increases the survival of CGNs | – |
| RSPHDLSLASLLGAG (listed as Homo sapiens) [A2, artemin fragment] | binding | increases the survival of CGNs | – |
